By IC50 is commonly meant the point on the concentration scale where inhibition reaches its midpoint. Read a high IC50 as a need for much substance.

The target of one assay is T1, Abl (T315I) (Homo sapiens, UniProt P00519, T315I).
T1 construct: purchased Upstate
The experiment in a line: Abl (T315I) Kinase Assay (KinaseGlo luminescent detection of residual ATP). Particulars: Abl (T315I) IC50 (nM), Abl (T315I) (Upstate, 17 ng/well), Abltide 100 uM, ATP 500 nM, 60 minutes at 37° C. Type of assay: biochemical. On the procedure:
The assay was performed similarly to the Abl kinase assay. Abl (T315I) (Upstate, 17 ng/well); Abltide substrate (100 uM) and ATP (500 nM) comprised the reaction mixture. Compound was similarly diluted, and the reaction plate was incubated for 60 minutes at 37° C.
On the technique in general: In Kinase-Glo more light means more ATP remaining.

For a further assay, the target named is Abl kinase (Homo sapiens, UniProt P00519). The experiment in a line: biochemical. Particulars: Abl IC50 (nM), Abl kinase (Invitrogen, 20 ng/well), Abltide 100 μM, ATP 500 nM, 37° C. for 60 minutes, top concentration 10 uM.

Where a name gives a salt, the structure may show the parent alone.

As for `CN1CCN(C(=O)c2ccc(Nc3ncc(/C=C/c4cccc5[nH]ccc45)cn3)cc2)CC1` [5-[(E)-2-(1H-indol-4-yl)vinyl]-N-{4-[(4-methylpiperazin-1-yl)carbonyl]phenyl}pyrimidin-2-amine], the IC50 on Abl (T315I) stood at 852 nM; on Abl kinase, 41 nM.

For the compound `Cc1ccc(/C=C/c2cnc(Nc3ccc(S(=O)(=O)C4CCNCC4)cc3)nc2)c2cc[nH]c12` [5-((E)-2-(7-methyl-1H-indol-4-yl)vinyl)-N-(4-(piperidin-ylsulfonyl)phenyl)pyrimidin-2-amine Hydrochloride], the concentration for half-maximal inhibition (IC50) at Abl (T315I) was 167 nM; on Abl kinase, 58 nM.

Take `O=S(=O)(CCCN1CCCC1)c1ccc(Nc2ncc(/C=C/c3cccc4[nH]ncc34)cn2)cc1` [5-[(E)-2-(1H-indazol-4-yl)vinyl]-N-{4-[(3-pyrrolidin-1-ylpropyl)sulfonyl]phenyl}pyrimidin-2-amine]: the IC50 against Abl (T315I) was determined as 124 nM; against Abl kinase it was 3.9 nM.

With `O=S(=O)(c1ccc(Nc2ncc(/C=C/c3cccc(O)c3)cn2)c(C(F)(F)F)c1)N1CCNCC1` [3-(2-{2-[4-(Piperazine-1-sulfonyl)-2-trifluoromethyl-phenylamino]-pyrimidin-5-yl}-vinyl)-phenol], the 50% inhibitory concentration (IC50) on Abl (T315I) was determined as 1.53e+06 nM; against Abl kinase, 44700 nM.

For the compound `CN1CCN(S(=O)(=O)c2cccc(Nc3ncc(/C=C/c4cccc5[nH]ccc45)cn3)c2)CC1` [5-[(E)-2-(1H-indol-4-yl)vinyl]-N-{3-[(4-methylpiperazin-1-yl)sulfonyl]phenyl}pyrimidin-2-amine], the IC50 on Abl (T315I) is roughly 10000 nM; against Abl kinase, 784 nM.

Turning to `O=S(=O)(c1ccc(Nc2ncc(/C=C/c3cccc(O)c3)cn2)cc1)N1CCC(CCO)CC1` [3-[2-(2-{4-[4-(2-Hydroxy-ethyl)-piperidine-1-sulfonyl]-phenylamino}-pyrimidin-5-yl)-vinyl]-phenol], the concentration for half-maximal inhibition (IC50) against Abl (T315I) came out at 160 nM; at Abl kinase, 18 nM.

Regarding `O=S(=O)(c1ccc(Nc2ncc(/C=C/c3ccc(C(F)F)cc3)cn2)cc1)C1CCNCC1` [5-(4-(difluoromethyl)styryl)-N-(4-(piperidin-4-ylsulfonyl)phenyl)pyrimidin-2-amine. Triflate], the 50% inhibitory concentration (IC50) on Abl (T315I) turned out to be 1330 nM; against Abl kinase, 429 nM.

For `Nc1nc2ccc(/C=C/c3cnc(Nc4ccc(S(=O)(=O)N(CCO)C5CCNCC5)cc4)nc3)cc2s1` [4-({5-[(E)-2-(2-amino-1,3-benzothiazol-6-vinyl]pyrimidin-2-yl}amino)-N-(2-hydroxyethyl)-N-piperidin-4-ylbenzenesulfonamide], the IC50 against Abl (T315I) turned out to be 33 nM; at Abl kinase, 84 nM.

Regarding `Nc1cccc(/C=C/c2cnc(Nc3ccc(S(=O)(=O)C4CCNCC4)cc3)nc2)n1` [5-((E)-2-(6-aminopyridin-2-yl)vinyl)-N-(4-(piperidin-4-ylsulfonyl)phenyl)pyrimidin-2-amine Hydrochloride], the IC50 on Abl (T315I) amounted to 1210 nM; on Abl kinase, 56 nM.

As for `O=S(=O)(c1ccc(Nc2ncc(/C=C/c3ccnc4[nH]ccc34)cn2)cc1)C1CCNCC1` [N-[4-(piperidin-4-ylsulfonyl)phenyl]-5-[(E)-2-(1H-pyrrolo[2,3-b]pyridin-4-yl)vinyl]pyrimidin-2-amine], the IC50 against Abl (T315I) was found to be 163 nM; against Abl kinase, 38 nM.

On to `O=S(=O)(c1ccc(Nc2ncc(/C=C/c3cccc4[nH]ncc34)cn2)cc1)N1CCNCC1` [{5-[2-(1H-Indazol-4-yl)-vinyl]-pyrimidin-2-yl}-[4-(piperazine-1-sulfonyl)-phenyl]-amine], for which the IC50 was found to be 289 nM against Abl (T315I) and 44 nM at Abl kinase.

As to `O=S(=O)(c1ccc(Nc2ncc(/C=C/c3cc(F)cc4[nH]nnc34)cn2)cc1)C1CCNCC1` [5-((E)-2-(6-fluoro-1H-benzo[d][1,2,3]triazol-4-yl)vinyl)-N-(4-(piperidin-4-ylsulfonyl)phenyl)pyrimidin-2-amine trifluoroacetate], the IC50 came to 12 nM against Abl (T315I) and 7.2 nM against Abl kinase.

Regarding `O=S(=O)(c1ccc(Nc2ncc(/C=C/c3ccc4c(c3)CC/C4=N/O)cn2)cc1)C1CCNCC1` [5-(2-{2-[4-(Piperidine-4-sulfonyl)-phenylaminol]-pyrimidin-5-yl}-vinyl)-indan-1-one oxime], the IC50 against Abl (T315I) came out at 1800 nM; against Abl kinase it was 2420 nM.

Regarding `Nc1nc2ccc(/C=C/c3cnc(Nc4ccc(S(=O)(=O)N5CCNCC5)c(N5CCNCC5)c4)nc3)cc2s1` [6-[(E)-2-(2-{[3-piperazin-1-yl-4-(piperazin-1-ylsulfonyl)phenyl]amino}pyrimidin-5-yl)vinyl]-1,3-benzothiazol-2-amine], the figures for the IC50 against Abl (T315I) and against Abl kinase were 152 nM and 318 nM, respectively.

Consider `Nc1noc2c(/C=C/c3cnc(Nc4ccc(S(=O)(=O)N5CCNCC5)c(NCCO)c4)nc3)cccc12` [2-{[5-({5-{(E)-2-(3-amino-1,2-benzisoxazol-7-yl)vinyl]pyrimidin-2-yl}amino)-2-(piperazin-1-ylsulfonyl)phenyl]amino}ethanol], for which the results for the IC50 against Abl (T315I) and against Abl kinase were 1860 nM and 34 nM, respectively.

Turning to `Nc1nc2cc(C(F)(F)F)cc(/C=C/c3cnc(Nc4ccc(S(=O)(=O)C5CCNCC5)cc4)nc3)c2[nH]1` [7-((E)-2-(2-(4-(piperidin-4-ylsulfonyl)phenylamino)pyrimidin-5-yl)vinyl)-5-(trifluoromethyl)-1H-benzo[d]imidazol-2-amine], the IC50 at Abl (T315I) is 254 nM; at Abl kinase, 130 nM.

Turning to `Nc1nc2ccc(/C=C/c3cnc(Nc4ccc(CCCN5CCCC5)cc4)nc3)cc2s1` [6-[(E)-2-(2-{[4-(3-pyrrolidin-1-ylpropyl)phenyl]amino}pyrimidin-5-yl)vinyl]-1,3-benzothiazol-2-amine], the IC50 against Abl (T315I) was 9450 nM; at Abl kinase it was 5150 nM.

With `O=S(=O)(c1ccc(Nc2ncc(/C=C/c3cccc(O)c3)cn2)cc1)N1CCC(CO)CC1` [3-(2-{2-[4-(4-Hydroxymethyl-piperidine-1-sulfonyl)-phenylamino]-pyrimidin-5-yl}-vinyl)-phenol], the IC50 against Abl (T315I) was 225 nM; on Abl kinase, 22 nM.

As for `NCC(=O)N1CCC(S(=O)(=O)c2ccc(Nc3ncc(/C=C/c4cccc5[nH]ccc45)cn3)cc2)CC1` [1-(4-(4-(5-((E)-2-(1H-indol-4-yl)vinyl)pyrimidin-2-ylamino)phenylsulfonyl)piperidin-1-yl)-2-aminoethanone hydrochloride], the IC50 on Abl (T315I) was 700 nM; on Abl kinase it was 66 nM.

On to `O=S(=O)(c1ccc(Nc2ncc(/C=C/c3ccc4[nH]nnc4c3)cn2)cc1)C1CCNCC1` [5-((E)-2-(1H-benzo[d][1,2,3]triazol-5-yl)vinyl)-N-(4-(piperidin-4-ylsulfonyl)phenyl)pyrimidin-2-amine], for which the IC50 at Abl (T315I) came out at 467 nM; against Abl kinase, 75 nM.

As for `O=S(=O)(c1ccc(Nc2ncc(/C=C/c3n[nH]c4ccccc34)cn2)cc1)C1CCNCC1` [5-((E)-2-(1H-indazol-3-yl)vinyl)-N-(4-(piperidin-4-ylsulfonyl)phenyl)pyrimidin-2-amine Hydrochloride], the half-maximal inhibitory concentration (IC50) is 202 nM against Abl (T315I) and 191 nM against Abl kinase.

Take `O=S(=O)(c1ccc(Nc2ncc(/C=C/c3cc(C(F)(F)F)cc4[nH]nnc34)cn2)cc1)N1CCNCC1` [[4-(Piperazine-1-sulfonyl)-phenyl]-{5-[2-(6-trifluoromethyl-1H-benzotriazol-4-yl)-vinyl]-pyrimidin-2-yl}-amine]: the figures for the IC50 at Abl (T315I) and against Abl kinase were 89 nM and 269 nM, respectively.

In the case of `O=S(=O)(CCCN1CCNCC1)c1ccc(Nc2ncc(/C=C/c3cccc4[nH]ccc34)cn2)cc1` [{5-[2-(1H-Indol-4-yl)-vinyl]-pyrimidin-2-yl}-[4-(3-piperazin-1-yl-propane-1-sulfonyl)-phenyl]-amine], the figures for the IC50 against Abl (T315I) and against Abl kinase were 488 nM and 54 nM, respectively.

`O=S(=O)(CC1CCNCC1)c1ccc(Nc2ncc(/C=C/c3cccc(O)c3)cn2)cc1` [3-(2-{2-[4-(Piperidin-4-ylmethanesulfonyl)-phenylamino]-pyrimidin-5-yl}-vinyl)-phenol]: the IC50 turned out to be 96 nM against Abl (T315I) and 31 nM on Abl kinase.

With `Nc1nc2ccc(/C=C/c3cnc(Nc4ccc(S(=O)(=O)N5CCNCC5)c(NCCO)c4)nc3)cc2s1` [2-{[5-({5-[(E)-2-(2-amino-1,3-benzothiazol-6-yl)vinyl]pyrimidin-2-yl}amino)-2-(piperazin-1-ylsulfonyl)phenyl]amino}ethanol], the IC50 on Abl (T315I) came out at 156 nM; at Abl kinase, 154 nM.

With `Nc1nc2ccc(/C=C/c3cnc(Nc4ccc([S+]([O-])CCN5CCOCC5)cc4)nc3)cc2s1` (centres unmarked) [6-(2-{2-[4-(2-Morpholin-4-yl-ethanesulfinyl)-phenylamino]-pyrimidin-5-yl}-vinyl)-benzothiazol-2-ylamine], the values for the IC50 against Abl (T315I) and against Abl kinase were 283 nM and 272 nM, respectively.

On to `O=S(=O)(c1ccc(Nc2ncc(/C=C/c3ccc(O)cc3)cn2)cc1)C1CCNCC1` [4-(2-{2-[4-(Piperidine-4-sulfonyl)-phenylamino]-pyrimidin-5-yl}-vinyl)-phenol], for which the IC50 on Abl (T315I) was 32 nM; at Abl kinase, 15 nM.

In the case of `O=S(=O)(c1ccc(Nc2ncc(/C=C/c3ccc(F)c(O)c3)cn2)cc1)C1CCNCC1` [2-Fluoro-5-(2-{2-[4-(piperidine-4-sulfonyl)-phenylamino]-pyrimidin-5-yl}-vinyl)-phenol], the IC50 stood at 213 nM on Abl (T315I) and 12 nM on Abl kinase.

Take `O=S(=O)(c1ccc(Nc2ncc(/C=C/c3ccc(F)c4[nH]ccc34)cn2)cc1)C1CCNCC1` [5-((E)-2-(7-fluoro-1H-indol-4-yl)vinyl)-N-(4-(piperidin-ylsulfonyl)phenyl)pyrimidin-2-amine Hydrochloride]: the IC50 on Abl (T315I) was 149 nM; against Abl kinase it was 8 nM.

`OCCN1CCN(c2cccc(Nc3ncc(/C=C/c4cccc5[nH]ccc45)cn3)c2)CC1` [2-(4-(3-(5-((E)-2-(1H-indol-4-yl)vinyl)pyrimidin-2-ylamino)phenyl)piperazin-1-yl)ethanol Hydrochloride] had an IC50 against Abl kinase of 178 nM.

For the origin of these results see US20070149508A1, “Six membered heteroaromatic inhibitors targeting resistant kinase mutations” (TargeGen, Inc., priority 2005, published 2007).
